Measurements reported in patent US9328369B2, “Process for production of useful substance, and surfactant for use in the process” (priority 2009, dated 2016).

Tests used:
Escherichia coli(ε) = experiment: Production by secretion in microbial culture system, protease expressing strain (Table 5); assay type: cell-based; conditions: Example 12, surfactant 1 wt %
Source text: A subtilisin Carlsberg gene of a Bacillus licheniformis was amplified by the PCR method using primers 7 and 8 (Table 4). After being treated with restriction enzymes NcoI and BamHI, a PCR amplified fragment was bound to an NcoI restriction enzyme site and a BamHI restriction enzyme site of a pET-22b plasmid (product of Novagen). Then, the plasmid was transformed into a BL21 (DE3) Escherichia coli strain (product of Novagen) to form Escherichia coli (ε) that expresses protease.
Overnight cultures (1 ml) of Escherichia coli (δ) obtained in Production Example 4 and Escherichia coli (ε) obtained in Production Example 5 were respectively prepared as Comparative Example 2 and Comparative Example 4. An amount of 0.5 ml of each was inoculated in 5 ml of an LB culture solution (containing 100 mg/L of ampicillin) and was shake-cultured at 30° C. for 3 hours. In this manner, pre-culture solutions were prepared. […] The whole protein in the culture solution was analyzed by SDS-PAGE. Based on the obtained amount of the protein band, the recombinant protein was quantified.
Performance of this processes for several times clarified the proportional relationship between the turbidity of the culture solution and the dried cell density. Therefore, the dried cell density was obtained from the measured turbidity in each of Comparative Examples 2 to 4 and Examples 2 to 14. […]

Escherichia coli (β) = experiment: Shake culture with surfactant, time course of protein production (Example 1, FIG. 1); assay type: cell-based; conditions: surfactant 1%; after 21 hours from the initiation
Experimental: Escherichia coli (β) was inoculated in 10 mL of an LB culture medium and was shake-cultured at 37° C. overnight. In this manner, a culture solution was prepared. The strains were collected using a centrifuge and the collected Escherichia coli (β) strain was resuspended in 10 ml of a TB culture medium (product of Difco). Shake culture at 37° C. induced expression of torA. Sampling was performed after 0, 0.5, 1, and 2 hours from the start of the shake culture, and harvesting using a centrifuge was carried out for each sampled solution. Collected bacterial cells were suspended in a buffer solution (50 mM Tris (pH 7.5), 100 mM NaCl) and ultrasonic fragmentation was performed (200 W, 10 minutes). Then, an SDS-PAGE analysis was performed to quantify the produced recombinant protein band. Based on the obtained data, the protein amount per gram of the bacterial cell was calculated and a graph was constructed.
The same processes were carried out as in Comparative Example 1 except that the surfactant A-7 was used as the surfactant (A) for the expression induction in an amount of 1% on the basis of the weight of the culture solution, and that sampling was performed after 0, 2, 4, 15, 19, and 21 hours from the initiation and analysis was performed on the supernatants of the centrifuged samples. A graph was similarly constructed.

In the case of “Cured palm oil fatty acid amidopropyl dimethyl aminoacetate betaine [A-6]”, the Turbidity (Escherichia coli(ε)) is reported as 95, the “Dried cell density” value (Escherichia coli(ε); obtained from turbidity) is reported as 26.6 g/L and the “Quantitative value of produced recombinant protein” value (Escherichia coli(ε); supernatant, SDS-PAGE) is reported as 0.37 g/L.

For Sodium cocaminopropionate [A-7], the “Dried cell density of the culture solution” value (Escherichia coli (β)) was 1.72 g/L.
